Reference: publication PMC11096368, “Transcriptomic signature, bioactivity and safety of a non-hepatotoxic analgesic generating AM404 in the midbrain PAG region” (Scientific Reports, 2024)

Experiment: LC–MS/MS detection of D10-SRP-001 and AM404 in the periaqueductal gray (PAG)
Type: in vivo, rats
Details: 30 min after IP injection, LC/MS–MS
Procedure: Next, we sought to define the uptake of SRP-001 in the nociception area of the brain, the midbrain’s periaqueductal (PAG) area[42],[43]. Thirty min following ip-SRP-001 administration (32 mg/kg), the PAG was harvested and analyzed by LC/MS–MS. D10-SRP-001 was used to match the fragmentation pattern while monitoring analytes.
Deuterated compound D10-SRP-001 was synthesized by Olon Ricerca Bioscience (Concord, OH), and purity was determined to be > 99.9% by HPLC. This was used as pure analytical standard for detection of SRP-001 using an LC–MS/MS method. Similarly, pure analytical standard of AM404 (10 ng/mL) obtained from Cayman Chemical (Ann Arbor, MI) was used to characterize the full fragmentation pattern of AM404. […] Thirty min post-injection, the animals were sacrificed (same as in the CFA/von Frey model), their brains harvested, and the midbrain periaqueductal gray (PAG) region excised. SRP-001 or AM404 were extracted from the PAG using a liquid–liquid extraction method using 1:1 MeOH:H2O for LC–MS/MS and were loaded onto a liquid chromatography-tandem mass spectrophotometer for analysis. The mass spectrophotometer was operated in multiple reaction monitoring (MRM) mode using positive ion electrospray. D10-SRP-001 was detected by monitoring the m/z transition 416 → 186. AM404 was detected by monitoring the m/z transition 396 → 287.

Detection in rat brain: detected in the brain
Compound: [2H]C([2H])([2H])C([2H])([2H])N(C(=O)c1ccccc1S(=O)(=O)NCC(=O)Nc1ccc(O)cc1)C([2H])([2H])C([2H])([2H])[2H] [D10-SRP-001]
